Here are results for 15 compounds from patent US20150344444A1, “BET-PROTEIN-INHIBITING DIHYDROXYQUINOXALINONES” (BAYER PHARMA AKTIENGESELLSCHAFT, priority 2012, published 2015).

Molecules are shown by their SMILES.

Experiment [1] has as its target T1, BRD4 Bromo Domain 1 [BRD4(1)] (Homo sapiens, UniProt O60885).
T1 construct: N-terminally His6-tagged BRD4(1) (amino acids 67-152); made in house; host or cells: E. coli
Briefly: BRD4(1)/acetylated peptide H4 binding assay (TR-FRET). Particulars: inhibition of interaction between His6-tagged BRD4(1) (amino acids 67-152) and acetylated histone H4 peptide. The gist of the method:
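His6-BRD4(1) (aa 67-152, E. coli), 10 nM final, with biotinylated tetra-acetylated H4 peptide in HEPES pH 7.5 buffer; 11 compound concentrations 0.1 nM-20 μM in duplicate, 10 min preincubation, then 1 h at 22 °C and ≥3 h at 4 °C. TR-FRET 665/620 ratio; IC50 by 4-parameter fit.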

For another experiment, the system named is B16F10 cells. As to the kind of experiment: B16F10 cell proliferation assay (alamarBlue). It is filed as cell-based. As to conditions: B16-F10; inhibition of cell proliferation, 96 hours, mouse melanoma cell line. The gist of the method: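 Mouse B16F10 melanoma cells (300-500/well, DMEM, 10% FCS) treated with compound at 1E-5 to 1E-8 M for 96 h at 37° C. alamarBlue fluorescence (ex 530/em 590 nm) before and after treatment; the difference compared to buffer-treated cells gives IC50 for proliferation inhibition.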

The test system of a further experiment is MOLM-13 cells. Briefly: MOLM-13 cell proliferation assay (alamarBlue). It is filed as cell-based. Particulars: inhibition of cell proliferation, 96 hours, human AML cell line. In outline:
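MOLM-13 AML cells (4000/well, RPMI1640 + 10% FCS) treated 96 h at 37 °C with 1E-5 to 1E-8 M compound. Proliferation by alamarBlue fluorescence (ex 530/em 590), pre-treatment reading subtracted; IC50 versus buffer-treated cells.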
Background: The colour change of resazurin is a common sign of viable cells or microbes.

The term IC50 denotes the midpoint of a concentration-inhibition curve. Read a high IC50 as a need for much substance. Consider `CC(=O)N1CCC(NC(=O)c2ccc(Nc3ccc4c(c3)N(C3CCOCC3)[C@H](C)C(=O)N4C)cc2)CC1` [Example 32, N-(1-acetylpiperidin-4-yl)-4-{[(3R)-1,3-dimethyl-2-oxo-4-(tetrahydro-2H-pyran-4-yl)-1,2,3,4-tetrahydroquinoxalin-6-yl]amino}benzamide], for which the IC50 in experiment [1] turned out to be 371 nM; in the experiment on B16F10 cells, 6420 nM; in the experiment with MOLM-13 cells, 3450 nM.
In the case of `CC(C)N1CCN(C(=O)c2ccc(Nc3ccc4c(c3)N(C3CCOCC3)[C@H](C)C(=O)N4C)cc2)CC1` [Example 33], the IC50 in experiment [1] worked out at 310 nM; in the experiment on B16F10 cells it was 1750 nM; with MOLM-13 cells, 1050 nM.
With `C[C@@H]1C(=O)N(C)c2ccc(Nc3ccc(C(=O)NC4CN(C)C4)cc3)cc2N1C1CCOCC1` [Example 34, 4-{[(3R)-1,3-dimethyl-2-oxo-4-(tetrahydro-2H-pyran-4-yl)-1,2,3,4-tetrahydroquinoxalin-6-yl]amino}-N-(1-methylazetidin-3-yl)benzamide], the IC50 in experiment [1] was determined as 511 nM; in the experiment with B16F10 cells it was 3570 nM; in the experiment with MOLM-13 cells it was 2100 nM.
In the case of `C[C@@H]1C(=O)N(C)c2ccc(Nc3ccc(C(=O)NC4CC4)cc3)cc2N1C1CCOCC1` [Example 35, N-cyclopropyl-4-{[(3R)-1,3-dimethyl-2-oxo-4-(tetrahydro-2H-pyran-4-yl)-1,2,3,4-tetrahydroquinoxalin-6-yl]amino}benzamide], the 50% inhibitory concentration (IC50) in experiment [1] worked out at 365 nM; with B16F10 cells, 2400 nM; with MOLM-13 cells, 2480 nM.
`COc1cc(C(=O)NC2CCN(C)CC2)ccc1Nc1ccc2c(c1)N(C1CCOCC1)[C@H](C)C(=O)N2C` [Example 36, 4-{[(3R)-1,3-dimethyl-2-oxo-4-(tetrahydro-2H-pyran-4-yl)-1,2,3,4-tetrahydroquinoxalin-6-yl]amino}-3-methoxy-N-(1-methylpiperidin-4-yl)benzamide]: the figures for the IC50 (in experiment [1]; in the experiment with B16F10 cells; in the experiment on MOLM-13 cells) were 482 nM, 2090 nM and 1080 nM, respectively.
In the same order, the values of `COc1cc(C(=O)NC2CCC(N3CCN(CC4CC4)CC3)CC2)ccc1Nc1ccc2c(c1)N(C1CCOCC1)[C@H](C)C(=O)N2C` (stereo partly drawn) [Example 37, N-{4-[4-(cyclopropylmethyl)piperazin-1-yl]cyclohexyl}-4-{[(3R)-1,3-dimethyl-2-oxo-4-(tetrahydro-2H-pyran-4-yl)-1,2,3,4-tetrahydroquinoxalin-6-yl]amino}-3-methoxybenzamide] are 422 nM, 1510 nM and 1080 nM.
The like results for `COc1cc(C(=O)N2CCN(C)CC2)ccc1Nc1ccc2c(c1)N(C1CCOCC1)[C@H](C)C(=O)N2C` [Example 38, (3R)-6-({2-methoxy-4-[(4-methylpiperazin-1-yl)carbonyl]phenyl}amino)-1,3-dimethyl-4-(tetrahydro-2H-pyran-4-yl)-3,4-dihydroquinoxalin-2(1H)-one] were, in that order, 272 nM, 1780 nM and 1790 nM.
For the compound `COc1ccc(CN2c3cc(Nc4ccc(S(=O)(=O)N(C)C)cc4)ccc3N(C)C(=O)[C@H]2C)cc1` [Example 41, 4-{[(3R)-4-(4-methoxybenzyl)-1,3-dimethyl-2-oxo-1,2,3,4-tetrahydroquinoxalin-6-yl]amino}-N,N-dimethylbenzenesulphonamide], the IC50 in experiment [1] was 183 nM; in the experiment with B16F10 cells, 175 nM; with MOLM-13 cells, 145 nM.
Turning to `COc1ccc(CN2c3cc(Nc4ccc(S(=O)(=O)N5CCOCC5)cc4)ccc3N(C)C(=O)[C@H]2C)cc1` [Example 42, (3R)-4-(4-methoxybenzyl)-1,3-dimethyl-6-{[4-(morpholin-4-ylsulphonyl)phenyl]amino}-3,4-dihydroquinoxalin-2(1H)-one], the IC50 in experiment [1] worked out at 120 nM; in the experiment on B16F10 cells, 79 nM; in the experiment on MOLM-13 cells, 149 nM.
For the compound `COc1ccc(CN2c3cc(Nc4ccc(S(=O)(=O)N5CCN(C)CC5)cc4)ccc3N(C)C(=O)[C@H]2C)cc1` [Example 43, (3R)-4-(4-methoxybenzyl)-1,3-dimethyl-6-({4-[(4-methylpiperazin-1-yl)sulphonyl]phenyl}amino)-3,4-dihydroquinoxalin-2(1H)-one], the IC50 in experiment [1] was 103 nM; with B16F10 cells it was 212 nM; in the experiment on MOLM-13 cells, 145 nM.
The like results for `COc1ccc(CN2c3cc(Nc4ccc(S(=O)(=O)N5CCN(C(C)C)CC5)cc4)ccc3N(C)C(=O)[C@H]2C)cc1` [Example 44, (3R)-4-(4-methoxybenzyl)-1,3-dimethyl-6-[(4-{[4-(propan-2-yl)piperazin-1-yl]sulphonyl}phenyl)amino]-3,4-dihydroquinoxalin-2(1H)-one] were, in that order, 55 nM, 460 nM and 340 nM.
For `C[C@@H]1C(=O)N(C)c2ccc(Nc3ccc(S(=O)(=O)N(C)C)cc3)cc2N1C1CCCCCC1` [Example 45, 4-{[(3R)-4-cycloheptyl-1,3-dimethyl-2-oxo-1,2,3,4-tetrahydroquinoxalin-6-yl]amino}-N,N-dimethylbenzenesulphonamide], the half-inhibitory concentration (IC50) in experiment [1] was 264 nM; in the experiment with B16F10 cells, 1570 nM; in the experiment with MOLM-13 cells it was 1340 nM.
For `C[C@@H]1C(=O)N(C)c2ccc(Nc3ccc(S(=O)(=O)N(C)C)cc3)cc2N1C1CCOCC1` [Example 46, 4-{[(3R)-1,3-dimethyl-2-oxo-4-(tetrahydro-2H-pyran-4-yl)-1,2,3,4-tetrahydroquinoxalin-6-yl]amino}-N,N-dimethylbenzenesulphonamide], the IC50 in experiment [1] was 145 nM; in the experiment on B16F10 cells, 600 nM; in the experiment with MOLM-13 cells it was 719 nM.
The like results for `C[C@@H]1C(=O)N(C)c2ccc(Nc3ccc(S(=O)(=O)N4CCOCC4)cc3)cc2N1C1CCOCC1` [Example 47, (3R)-1,3-dimethyl-6-{[4-(morpholin-4-ylsulphonyl)phenyl]amino}-4-(tetrahydro-2H-pyran-4-yl)-3,4-dihydroquinoxalin-2(1H)-one] were, in that order, 95 nM, 423 nM and 407 nM.
`C[C@@H]1C(=O)N(C)c2ccc(Nc3ccc(S(=O)(=O)N4CCN(C)CC4)cc3)cc2N1C1CCOCC1` [Example 48, (3R)-1,3-dimethyl-6-({4-[(4-methylpiperazin-1-yl)sulphonyl]phenyl}amino)-4-(tetrahydro-2H-pyran-4-yl)-3,4-dihydroquinoxalin-2(1H)-one]: the IC50 was 237 nM in experiment [1], 1450 nM in the experiment with B16F10 cells and 1250 nM in the experiment with MOLM-13 cells.
